Columns and labels:
Assay type in all cases: in vivo
bulrush [1] = experiment: Test Example 1: weedkilling efficacy, preemergent weed treatment in the submerged state; B: bulrush; details: treatment dosage 320 g/ha
Summary of the method: (§1)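 Alluvial soil in Wagner pots flooded to 4 cm; barnyard grass, bulrush and oval-leafed pondweed seeds sown, then 2.5-leaf rice seedlings transplanted. Same day, emulsified compound diluted in water to set g/ha dosages and applied to water surface; greenhouse 25–30 °C, effect scored by criteria after 3 weeks.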

barnyard grass [2] = experiment: Test Example 3: weedkilling efficacy through soil treatment; F: barnyard grass; details: soil treatment, treatment dosage 320 g/ha
Text: (§2) Weedkilling Efficacy Test Through Soil Treatment
(§3) Sterilized diluvial soil was introduced into 21 cm long, 13 cm wide, 7 cm deep plastic boxes, and seeds of crabgrass, green foxtail, barnyard grass, wild oat, black-grass, Italian ryegrass, common wind-grass, Indian mallow, redroot pigweed, fig-leafed goosefoot, chickweed, catchweed, birds-eye speedwell, corn, soybean, rice, wheat, beet and rapeseed were each spot-sown, and covered with about 1.5 cm of soil. Next, emulsions of compounds of the present invention prepared according to compounding example 2 were diluted with water to give the specified dosages, and applied uniformly onto the soil surface with a small sprayer. The plants were grown by placing the plastic boxes in a greenhouse at 25 to 30° C., and 3 weeks after the pesticide treatment the effect on each type of plant was investigated on the basis of the assessment criteria of test example 1.
(§4) A: barnyard grass, B: bulrush, C: oval-leafed pondweed, D: crabgrass, E: green foxtail, F: barnyard grass, G: wild oat, H: black-grass, I: Italian ryegrass, J: common wind-grass, K: Indian mallow, L: redroot pigweed, M: fig-leafed goosefoot, N: chickweed, O: catchweed, p: birds-eye speedwell, a: transplanted rice, b: directly sown rice, c: corn, d: soybean, e: wheat, f: beet, g: rapeseed
(§5) Further, pesticide dosage (g/ha) indicates the concentration regulated such that treatment was with only the stated number of grams (g), when calculated per hectare (ha).

transplanted rice = experiment: Test Example 1: preemergent weed treatment in the submerged state, effect on crop; a: transplanted rice; details: treatment dosage 320 g/ha
Summary of the method: as §1

wild oat = experiment: Test Example 3: weedkilling efficacy through soil treatment; G: wild oat; details: soil treatment, treatment dosage 320 g/ha
Summary of the method: (§6)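 Crop and weed responses were judged three weeks after a uniform surface spray of the water-diluted emulsion at the given g/ha rate. Seeds sat beneath about 1.5 cm of sterilized diluvial soil, and boxes stood in a greenhouse at 25 to 30° C.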

barnyard grass [3] = experiment: Test Example 2: weedkilling efficacy, growth period weed treatment in the submerged state; A: barnyard grass; details: treatment dosage 320 g/ha
Summary of the method: (§7)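 First, alluvial soil in pots is flooded to 4 cm and mixed seed is sown. Next, plants grow in a greenhouse at 25 to 30° C until the 1-2 leaf stage. Then diluted emulsion is applied onto the water surface at the given g/ha rate, and injury is assessed after 3 weeks.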

oval-leafed pondweed [4] = experiment: Test Example 2: weedkilling efficacy, growth period weed treatment in the submerged state; C: oval-leafed pondweed; details: treatment dosage 320 g/ha
Summary of the method: as §7

beet = experiment: Test Example 3: soil treatment, effect on crop; f: beet; details: soil treatment, treatment dosage 320 g/ha
Summary of the method: as §6

wheat = experiment: Test Example 3: soil treatment, effect on crop; e: wheat; details: soil treatment, treatment dosage 320 g/ha
Summary of the method: as §6

Italian ryegrass = experiment: Test Example 3: weedkilling efficacy through soil treatment; I: Italian ryegrass; details: soil treatment, treatment dosage 320 g/ha
Summary of the method: as §6

black-grass = experiment: Test Example 3: weedkilling efficacy through soil treatment; H: black-grass; details: soil treatment, treatment dosage 320 g/ha
Summary of the method: as §6

common wind-grass = experiment: Test Example 3: weedkilling efficacy through soil treatment; J: common wind-grass; details: soil treatment, treatment dosage 320 g/ha
Text: as §2, §3, §4, §5

corn = experiment: Test Example 3: soil treatment, effect on crop; c: corn; details: soil treatment, treatment dosage 320 g/ha
Summary of the method: as §6

crabgrass = experiment: Test Example 3: weedkilling efficacy through soil treatment; D: crabgrass; details: soil treatment, treatment dosage 320 g/ha
Summary of the method: as §6

chickweed = experiment: Test Example 3: weedkilling efficacy through soil treatment; N: chickweed; details: soil treatment, treatment dosage 320 g/ha
Summary of the method: as §6

rapeseed = experiment: Test Example 3: soil treatment, effect on crop; g: rapeseed; details: soil treatment, treatment dosage 320 g/ha
Text: as §2, §3, §4, §5

Indian mallow = experiment: Test Example 3: weedkilling efficacy through soil treatment; K: Indian mallow; details: soil treatment, treatment dosage 320 g/ha
Summary of the method: as §6

bulrush [5] = experiment: Test Example 2: weedkilling efficacy, growth period weed treatment in the submerged state; B: bulrush; details: treatment dosage 320 g/ha
Summary of the method: as §7

barnyard grass [6] = experiment: Test Example 1: weedkilling efficacy, preemergent weed treatment in the submerged state; A: barnyard grass; details: treatment dosage 320 g/ha
Summary of the method: as §1

green foxtail = experiment: Test Example 3: weedkilling efficacy through soil treatment; E: green foxtail; details: soil treatment, treatment dosage 320 g/ha
Summary of the method: as §6

soybean = experiment: Test Example 3: soil treatment, effect on crop; d: soybean; details: soil treatment, treatment dosage 320 g/ha
Summary of the method: as §6

redroot pigweed = experiment: Test Example 3: weedkilling efficacy through soil treatment; L: redroot pigweed; details: soil treatment, treatment dosage 320 g/ha
Summary of the method: as §6

oval-leafed pondweed [7] = experiment: Test Example 1: weedkilling efficacy, preemergent weed treatment in the submerged state; C: oval-leafed pondweed; details: treatment dosage 320 g/ha
Summary of the method: as §1

birds-eye speedwell = experiment: Test Example 3: weedkilling efficacy through soil treatment; p: birds-eye speedwell; details: soil treatment, treatment dosage 320 g/ha
Summary of the method: as §6

directly sown rice = experiment: Test Example 3: soil treatment, effect on crop; b: directly sown rice; details: soil treatment, treatment dosage 320 g/ha
Summary of the method: as §6

## CC(C)(C(=O)Nc1ccc2ccccc2n1)N1COCN(c2ccccc2)C1=O [A-1-24]
Bulrush [1]
  B: bulrush, weed kill grade: 5 (weed kill ratio 90% or more, (practically complete withering))
Barnyard grass [2]
  F: barnyard grass, weedkilling efficacy grade: 2 (weed kill ratio 20% or more, less than 40%)
Transplanted rice
  a: transplanted rice, effect on crop grade: 0 (weed kill ratio 5% or less (practically no effect))
Wild oat
  G: wild oat, weedkilling efficacy grade: 0 (weed kill ratio 5% or less (practically no effect))
Barnyard grass [3]
  A (barnyard grass) weedkilling efficacy grade: 4 (weed kill ratio 70% or more, less than 90%)
oval-leafed pondweed [4]
  C (oval-leafed pondweed) weedkilling efficacy grade: 5 (weed kill ratio 90% or more, (practically complete withering))
beet
  f: beet, effect on crop grade: 0 (weed kill ratio 5% or less (practically no effect))
wheat
  e: wheat, effect on crop grade: 0 (weed kill ratio 5% or less (practically no effect))
Italian ryegrass
  I: Italian ryegrass, weedkilling efficacy grade: 3 (weed kill ratio 40% or more, less than 70%)
black-grass
  H: black-grass, weedkilling efficacy grade: 1 (weed kill ratio 5% or more, less than 20%)
Common wind-grass
  J: common wind-grass, weedkilling efficacy grade: 4 (weed kill ratio 70% or more, less than 90%)
corn
  c: corn, effect on crop grade: 0 (weed kill ratio 5% or less (practically no effect))
crabgrass
  D: crabgrass, weedkilling efficacy grade: 3 (weed kill ratio 40% or more, less than 70%)
chickweed
  N: chickweed, weedkilling efficacy grade: 0 (weed kill ratio 5% or less (practically no effect))
rapeseed
  g: rapeseed, effect on crop grade: 0 (weed kill ratio 5% or less (practically no effect))
Indian mallow
  K: Indian mallow, weedkilling efficacy grade: 0 (weed kill ratio 5% or less (practically no effect))
Bulrush [5]
  B (bulrush) weedkilling efficacy grade: 5 (weed kill ratio 90% or more, (practically complete withering))
Barnyard grass [6]
  A: barnyard grass, weed kill grade: 5 (weed kill ratio 90% or more, (practically complete withering))
Green foxtail
  E: green foxtail, weedkilling efficacy grade: 3 (weed kill ratio 40% or more, less than 70%)
soybean
  d: soybean, effect on crop grade: 0 (weed kill ratio 5% or less (practically no effect))
Redroot pigweed
  L: redroot pigweed, weedkilling efficacy grade: 0 (weed kill ratio 5% or less (practically no effect))
oval-leafed pondweed [7]
  C: oval-leafed pondweed, weed kill grade: 5 (weed kill ratio 90% or more, (practically complete withering))
birds-eye speedwell
  P: birds-eye speedwell, weedkilling efficacy grade: 4 (weed kill ratio 70% or more, less than 90%)
Directly sown rice
  b: directly sown rice, effect on crop grade: 0 (weed kill ratio 5% or less (practically no effect))

From patent US9738634B2, “Heterocyclic amide compound and herbicide” (SYNGENTA PARTICIPATIONS AG, priority 2013, dated 2017)
